# Entries after “also recorded” stand apart in the source; their conditions may differ. Read-outs that look alike come from different tables or passages of the source.
# Experiments:
# [1] = Renal function by creatinine clearance in one patient; assay type: in vivo, human; settings: from ~29 mL/min before
# Description: This treatment is useful, not only in stopping the progression of the diseases, but in returning more of organ function previously lost. Text books claim that organ function lost to these diseases can never be recovered, but this treatment has succeeded in recovering nearly all lost organ function. One of the diseases for which a large return of function appears achievable is progressive loss of renal function by unknown cause, but suspected to be autoimmune disease related. A clinical laboratory measure of kidney function is creatinine clearance. Creatinine is the metabolic product formed from creatine when food is converted to energy. Creatinine is produced at a steady state and is affected very little by diet or normal physical activities. When a subject's kidneys are damaged and/or cannot function normally, the amount of creatinine excreted in the subject's urine decreases while its level in the blood increases. Thus, the blood level of creatinine indicates how well the kidneys are working A higher than normal blood level of creatinine usually means the kidneys are not functioning properly. […] As the measured kidney function improves a parallel process occurs in other affected tissues or organs, with a diminution of the visible inflammation, swelling, pain, grinding and clicks in the afflicted articular joints. […]
# [2] = test system: HSV-II; assay: Suppression of vesicle formation, prodrome and viral shedding in person with ongoing HSV-II infection; assay type: in vivo, human
# Description: The inventor in this application is aware of the prior art teaching of U.S. Pat. No. 5,559,114 (“'114”) and International Application No. PCT/US95/16207 (“16207”) that describe the treatment of certain autoimmune diseases using higher than FDA-approved amounts of certain 2-amino purine derivatives. According to the teachings of the '114 patent and the 16207 application, one compound useful was acyclovir (or its precursor valacyclovir) at a level of 20 to 50 g per day for a 100 kg subject (or 5-10 g of valacyclovir). Another compound was famciclovir (the precursor of penciclovir) at about 4-10 g per day for a 100 kg subject ([…]). In following the treatment regime so taught for a subject having HSV-II infection and with the drug used to suppress autoimmune disease signs or symptoms, the inventor of the present invention observed that although the signs or symptoms of the subject's autoimmune disease improved, the subject continued to experience discomfort even if the high dose regimen of famciclovir described in the '114 patent was followed for a number of years. In addition, the subject continued to have prodrome episodes, vesicle outbreaks, and viral shedding. The prodrome is the sensation of tingling, pain or both in an area where the herpetic vesicles will appear within 24 to 48 hours. This is a very reliable signal that vesicles will appear on schedule. Vesicles are blisters or ulcers that appear on the skin or various mucous membranes as a result of the virus's replication process destroying cells that it has invaded. Viral shedding means that the virus is active on the skin, even though there is no prodrome or vesicle formation, and can be transmitted to another subject through skin contact, kissing, sexual intercourse, or oral sex.
# This inventor interprets this to mean that viral shedding has been reduced dramatically, at least 90%. It is probably that viral shedding has been stopped completely. […]
# [3] = Aseptic meningio-encephalitis subject treated with much higher doses; assay type: in vivo, human; settings: much higher doses than '114
# Description: While the treatment of autoimmune disease using high levels of the anti-herpetic drugs taught in patent '114 provided noticeable improvements in a patient, signs or symptoms lingered even with ongoing treatment. Knowing the warning of the anti-herpetic drug labels that were on the market against using higher doses, increasing the dose even further was definitely contraindicated. However, the inventor was confronted with a problem of a subject presenting with extremely painful migraine type headache, which was diagnosed to be aseptic (not bacterial) meningio-encephalitis. […] The inventor also discovered that by using the much higher doses of famciclovir than previously taught in '114, the need to titrate a subject to tolerance of the drug could be avoided, that is the higher doses were effective at ameliorating the signs or symptoms of the disease without the accompanying pain of starting at a low dose and increasing it to a therapeutically effective level, as experienced with the doses of '114. While not wishing to be bound by a particular theory, it is thought that by regularly administering the higher levels the drug, a subject avoids a fluctuating blood level that can add to the irritation of already irritated nerves by major influxes of drug at a high level after having been at a lower level in the subject. […]
# [4] = cited from earlier work
# [5] = cited from earlier work; remark: listed apart in the source
# [6] = oral, maximum dose of 800 mg 5 times per day, most patients; cited from earlier work
smiles,measurement,setting,value
"CC(=O)OCC(CCn1cnc2cnc(N)nc21)COC(C)=O [famciclovir, 2-[2-(2-amino-9H-purin-9-yl)ethyl]-1,3-propanediol diacetate]",creatinine clearance,"[1]; doses of '114, same patient",~89 mL/min
same,creatinine clearance,"[1]; very high doses, one patient",more than 140 mL/min
same,viral shedding reduced,"[2]; 300 mg/kg/day, inventor's interpretation from suppressed sensations",at least 90%
same,prodrome and vesicle outbreak,[2]; 10-12 g per day ('114 dose level),continued to experience prodrome and vesicle outbreak
same,vesicle formation,"[2]; ongoing dosage of 300 mg/kg/day, 300 mg/kg/day",no new vesicles form; also recorded: total suppression
same,signs or symptoms of the encephalitis,[3],alleviated
same,"effect on pain, muscle spasms, joint tenderness and butterfly rash",[4]; 10-12 g per day,same effect
same,oral bioavailability,"[5]; in vivo, po",77±8%
"Nc1nc2c(ncn2COCCO)c(=O)[nH]1 [acyclovir, 2-amino-1,9-dihydro-9-[(2-hydroxyethoxy)methyl]-6H-purin-6-one]",blood level,[6],about 1.61 μg/mL
same,"effect on pain, muscle spasms, joint tenderness and butterfly rash","[4]; lupus patient, between 40 and 50 g per day","controlled pain, muscle spasms, joint tenderness and the butterfly rash"
"CC(C)[C@H](N)C(=O)OCCOCn1cnc2c(=O)[nH]c(N)nc21 [valacyclovir, L-valine, 2-[(2-amino-1,6-dihydro-6-oxo-9H-purin-9-yl)methoxy]ethyl ester]",oral bioavailability,[5]; oral,55±9%

# — patent US8853222B2, “Treatment of herpes virus related diseases” (priority 2008, dated 2014)
